Source: US12357654B2, “Application of glucan in preparation of drug” (Qingdao Conson Pharmaceutical Co., Ltd., priority 2019, dated 2025)

How the values were obtained:
leukocytes and platelets = experiment: Leukocytes and platelets by hematology analyzer, B16 model with carboplatin chemotherapy; assay type: in vivo, C57BL/6J mice; details: BG136 4 mg/kg tail vein with carboplatin 30 mg/kg i.p. twice a week; day 15; FIGS. 17-21
Description: (§1) A cell suspension of 3×10^5 mouse melanoma cell line B16 (presented by PerkinElmer) was injected subcutaneously into C57BL/6J mice (females, 6-8 weeks old, purchased from Jinan Panyue Experimental Animal Company) (Overwijk & Restifo, 2001). About 2 days after tumor implantation, carboplatin (30 mg/kg, twice a week) was injected intraperitoneally and BG136 (4 mg/kg) or lentinan LNT (2 mg/kg) was injected via the tail vein, and tumor volume were measured during administration, and on day 15, after animals were sacrificed, tumor weight was measured. Blood was taken from the heart after animals were sacrificed, placed in EDTA-anticoagulation tubes. After mixing, 50 μl of whole blood was taken and the immune cell concentration was measured by a hematology analyzer.

platelets = experiment: Platelet concentration by hematology analyzer, B16 model with anti-PD-1 antibody; assay type: in vivo, C57BL/6J mice; details: blood day 14, FIG. 3
[1] = test system: mouse melanoma cell line B16; experiment: B16 syngeneic tumor model after local radiotherapy: tumor volume, tumor weight; assay type: in vivo, C57BL/6J mice; details: local radiotherapy 10 Gy day 5; glucan by tail vein once a week (day 6, day 14); sacrificed day 17; FIGS. 5-7
Description: (§2) A cell suspension of 3×10^5 mouse melanoma cell line B16 (presented by PerkinElmer) was injected subcutaneously into C57BL/6J mice (female, 6-8 weeks old, purchased from Jinan Pengyue Experimental Animal Company)(Overwijk & Restifo, 2001). About 5 days after tumor implantation, local radiotherapy (tumor injection area, 10 Gy) was applied. On day 6 and day 14, vehicle or β-1,3/1,6-glucan was administered (tail vein injection, once a week), during this period, tumor volume and mouse body weight were measured, and on day 17, after the animals were sacrificed, tumor weight was measured.

leukocytes = experiment: Immune cell concentration by hematology analyzer, B16 model after radiotherapy; assay type: in vivo, C57BL/6J mice; details: local radiotherapy 10 Gy, glucan by tail vein once a week, FIGS. 8-15
Description: as §2, with “week),” for “week), during this period, tumor volume and mouse body weight were measured,”, “measured. Blood was taken from the heart after animal sacrificed, placed into EDTA-anticoagulation tubes. After mixing, 50 μl of whole blood was taken and the immune cell concentration was measured by a hematology analyzer.” for “measured.”

[2] = test system: immune cell subpopulations in blood and tumors; experiment: Flow cytometric analysis of immune cell subpopulations in blood and tumors, B16 model with anti-PD-1 antibody; assay type: in vivo, C57BL/6J mice
Description: (§3) A cell suspension of 3×10^5 mouse melanoma cell line B16 (presented by PerkinElmer) was injected subcutaneously into C57BL/6J mice (female, 6-8 weeks old, purchased from Jinan Pengyue Experimental Animal Company). The administration experiments were performed about 4 days after implantation when B16 tumors have grown to be palpable. Mice were divided into four groups and treated with vehicle or β-1,3/1,6-glucan (4 mg/kg, i.v., twice a week) alone, or in combination with anti-PD-1 antibody (anti-mouse PD-1 antibody purchased from BioxCell, 200 μg per mouse, i.v., once a week). Tumor volumes were evaluated and tumor weights were recorded. After sacrifice of mice, blood and tumor samples were collected for flow cytometric analysis.
Blood samples were collected by cardiac puncture, collected into EDTA-anticoagulation tubes. 50 μl of whole blood was taken for blood analysis, 50 μl of whole blood was taken for erythrocyte lysis (erythrocyte lysis buffer, Meltenyi), and the remaining whole blood was centrifuged at 3500 rpm for 7 min and the plasma was taken and stored at −80° C. Spleens and thymus were weighed for recording. Subcutaneous tumors of mice, about 0.2-0.5 g of tumors tissues, were taken, and single cell suspensions from the tumor samples were obtained by Mouse Tumor Dissociation Kit (Meltenyi). The blood cells after erythrocyte lysis as well as the dissociated tumor cell suspensions were subjected to subsequent processing, as well as flow cytometric detection
The single-cell suspensions were blocked with blocking buffer (20% FBS, 1:100 CD16/CD32 antibody and 1:100 rat IgG) for 20 min, and incubated and stained with the corresponding immune cell surface protein antibodies (CD11 b-PE, CD4-BV510, CD8-PerCP-Cy5.5, CD19-APC, CD3-FITC, CD206-PE-Cy7, Ly6C-APC) for 30 minutes at 4° C. Analysis of immune cell population ratios was performed by FACS
Arial III (BD Biosciences). The specific procedure was delineating the cell population in the FSC/SSC quadrant, delineating single cell population by FSC-H and FSC-A, and delineating corresponding immune cells by immune cell surface markers, and calculating the cell ratio or relative concentration.
(§4) Combination treatment also upregulates pro-inflammatory monocyte-derived macrophages (CD11b+Ly6Chi, FIG. 1E) in the peripheral blood. […] In addition, it was detected that the combination application of β-1,3/1,6-glucan and PD-1 antibodies enhances the percentage of CD4 and CD8 T cells in the blood and tumor (FIG. 2). It was shown that β-1,3/1,6-glucan and anti-PD-1 antibodies synergistically increase tumor infiltration of pro-inflammatory macrophages, decrease the percentage of immunosuppressive TAM, and increase the ratio of acquired immune cells T and B cells, resulting in building up a more pro-inflammatory and anti-tumoral tumor microenvironment.

[3] = test system: mouse melanoma cell line B16; experiment: B16 syngeneic tumor model with carboplatin chemotherapy: tumor volume, tumor weight; assay type: in vivo, C57BL/6J mice; details: BG136 4 mg/kg tail vein with carboplatin 30 mg/kg i.p. twice a week; sacrificed day 15; FIGS. 17-21
Description: as §1

[4] = test system: lymphocytes in peripheral blood; experiment: Relative lymphocyte concentration in peripheral blood by FACS, B16 model with anti-PD-1 antibody; assay type: in vivo, C57BL/6J mice; details: 8 mg/kg β-1,3/1,6-glucan combined with PD-1 antibody, versus PD-1 antibody alone; FIG. 4
Description: A cell suspension of 3×10^5 mouse melanoma cell line B16 (presented by PerkinElmer) was injected subcutaneously into C57BL/6J mice (female, 6-8 weeks old, purchased from Jinan Pengyue Experimental Animal Company). The administration experiments were performed about 4 days after implantation when B16 tumors have grown to be palpable. […] Tumor volumes were evaluated and tumor weights were recorded. After sacrifice of mice, blood and tumor samples were collected for flow cytometric analysis.
The experimental method was the same as in Example 1. On day 14, blood was taken from the heart after animal sacrificed, and placed in EDTA-anticoagulation tubes. After mixing, 50 μl of whole blood was taken. 5 μl of GFP microspheres were added to each sample for erythrocyte lysis.
(§5) The single-cell suspensions were blocked with blocking buffer (20% FBS, 1:100 CD16/CD32 antibody and 1:100 rat IgG) for 20 min, and incubated and staining with the corresponding immune cell surface protein antibodies (CD4-BV510, CD8-PerCP-Cy5.5, CD19-APC, CD3-FITC) for 30 minutes at 4° C. Analysis of immune cell population ratios was performed by FACS Arial III (BD Biosciences). The specific procedure was delineating the cell population in the FSC/SSC quadrant, delineating the single cell population by FSC-H and FSC-A, and delineating the corresponding immune cells by immune cell surface markers, and calculating the relative immune cell concentration.

[5] = test system: mouse melanoma cell line B16; experiment: B16 syngeneic tumor model, β-1,3/1,6-glucan with anti-PD-1 antibody: tumor volume, tumor weight, body weight; assay type: in vivo
Description: as §3, §4

[6] = test system: CD4, CD8 and CD19 cells in peripheral blood; experiment: Relative CD4, CD8, CD19 cell concentration in peripheral blood by FACS, B16 model after radiotherapy; assay type: in vivo, C57BL/6J mice; details: 8 mg/kg β-1,3/1,6-glucan after radiotherapy, FIG. 16
Description: On day 14, blood was taken from the heart after animals were sacrificed, and placed in EDTA-anticoagulation tubes. After mixing, 50 μl of whole blood was taken. 5 μl of GFP microspheres were added to each sample for erythrocyte lysis.
as §5, with “CD19-APC)” for “CD19-APC, CD3-FITC)”, “Anal” for “Arial”

[7] = combination with PD-1 antibody, FIG. 2
[8] = combination with anti-PD-1 antibody, flow cytometry, FIG. 1D
[9] = combination with anti-PD-1 antibody, within the tumor, FIG. 1F

## β-1,3/1,6-glucan
Leukocytes and platelets
  decrease in platelets after carboplatin administration: reverses
  immune response / immunosuppression after carboplatin administration (immune cell concentration): reverses the immunosuppression
platelets; single agent alone
  platelet concentration: does not affect
platelets; β-1,3/1,6-glucan in combination with PD-1 antibody
  platelet concentration, platelet-lowering side effect of PD-1 antibody: reverses the platelet-lowering side effect
[1]
  anti-tumor effect in combination with radiotherapy (tumor volume, tumor weight): enhances the anti-tumor effect of radiotherapy
leukocytes
  concentration of immune cells in blood after radiotherapy: increasing the concentration of immune cells
[2]; combination treatment compared with anti-PD-1 antibody alone, within the tumor, FIG. 1G
  percentage of immunosuppressive tumor-associated macrophages TAM (CD11b+CD206+): reduced
[2]; [7]
  percentage of CD4 T cells in the blood and tumor: enhances
  percentage of CD8 T cells in the blood and tumor: enhances
[2]; combination with anti-PD-1 antibody, FIG. 1E
  pro-inflammatory monocyte-derived macrophages (CD11b+Ly6Chi) in the peripheral blood: upregulates
[2]; [8]
  percentage of CD11b+ cells in the blood: decreases
  percentage of CD19+ cells in the blood: increases
[2]; [9]
  tumor infiltration of myeloid cells (CD11b+): more infiltration
  tumor infiltration of pro-inflammatory macrophages (CD11b+Ly6Chi): more infiltration
[3]
  tumor suppressive effect in combination with carboplatin: enhances the tumor suppressive effect of carboplatin
[4]
  relative concentration of CD3 in blood: further increase
  relative concentration of CD4 in blood: further increase
  relative concentration of CD8 in blood: further increase
  relative concentration of CD19 in blood: further increase
[5]; combination of β-1,3/1,6-glucan 4 mg/kg and anti-PD-1 antibody 200 μg/mouse, FIG. 1C
  body weight and death of mice during treatment: no significant changes
[5]; β-1,3/1,6-glucan 4 mg/kg i.v. twice a week combined with anti-PD-1 antibody 200 μg/mouse i.v. once a week, FIG. 1A, 1B
  tumor growth inhibition, combination versus single treatment: more effectively inhibits tumor growth than single treatment
[5]; β-1,3/1,6-glucan 4 mg/kg i.v. twice a week combined with anti-PD-1 antibody 200 μg/mouse i.v. once a week, sacrificed day 14, FIG. 1A, 1B
  anti-PD-1 antibody-induced tumor regression: enhances anti-PD-1 antibody-induced tumor regression
[6]
  cell concentration of CD4 after radiotherapy: increases
  cell concentration of CD8 after radiotherapy: increases
  cell concentration of CD19 after radiotherapy: increases
